Assays:
D(1A) dopamine receptor = D(1A) dopamine receptor (Homo sapiens, UniProt P21728); format: functional, cell-based
Progesterone receptor [1] = target: T1, Progesterone receptor (Homo sapiens, UniProt P06401); format: functional
T1 sequence (P06401 whole entry): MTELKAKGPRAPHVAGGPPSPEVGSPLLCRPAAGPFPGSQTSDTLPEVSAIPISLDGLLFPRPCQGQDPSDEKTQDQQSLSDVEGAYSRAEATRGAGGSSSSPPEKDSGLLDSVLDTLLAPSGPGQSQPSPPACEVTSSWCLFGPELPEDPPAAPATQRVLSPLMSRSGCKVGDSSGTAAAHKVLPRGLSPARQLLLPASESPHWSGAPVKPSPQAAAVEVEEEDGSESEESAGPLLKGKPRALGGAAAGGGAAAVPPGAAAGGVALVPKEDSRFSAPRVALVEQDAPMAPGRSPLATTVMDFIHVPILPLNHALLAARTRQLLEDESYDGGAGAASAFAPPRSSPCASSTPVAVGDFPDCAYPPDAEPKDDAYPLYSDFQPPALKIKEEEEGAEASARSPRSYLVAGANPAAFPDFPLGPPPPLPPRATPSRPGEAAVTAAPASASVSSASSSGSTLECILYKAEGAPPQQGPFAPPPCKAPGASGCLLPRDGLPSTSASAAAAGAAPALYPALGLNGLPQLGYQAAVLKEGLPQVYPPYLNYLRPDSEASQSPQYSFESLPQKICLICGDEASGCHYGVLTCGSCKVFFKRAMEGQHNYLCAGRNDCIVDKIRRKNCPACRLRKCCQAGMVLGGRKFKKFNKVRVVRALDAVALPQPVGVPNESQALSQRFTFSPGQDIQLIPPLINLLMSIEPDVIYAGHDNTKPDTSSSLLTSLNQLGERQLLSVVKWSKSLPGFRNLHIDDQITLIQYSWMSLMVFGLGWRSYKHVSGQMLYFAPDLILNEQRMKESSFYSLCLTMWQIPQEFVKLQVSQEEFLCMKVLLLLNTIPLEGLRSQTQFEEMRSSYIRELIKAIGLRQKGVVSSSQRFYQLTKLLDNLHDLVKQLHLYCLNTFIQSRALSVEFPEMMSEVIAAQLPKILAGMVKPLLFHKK

[2] = target: T2, Alpha-2A adrenergic receptor (Homo sapiens, UniProt P08913); format: functional, cell-based
T2 sequence (P08913 whole entry): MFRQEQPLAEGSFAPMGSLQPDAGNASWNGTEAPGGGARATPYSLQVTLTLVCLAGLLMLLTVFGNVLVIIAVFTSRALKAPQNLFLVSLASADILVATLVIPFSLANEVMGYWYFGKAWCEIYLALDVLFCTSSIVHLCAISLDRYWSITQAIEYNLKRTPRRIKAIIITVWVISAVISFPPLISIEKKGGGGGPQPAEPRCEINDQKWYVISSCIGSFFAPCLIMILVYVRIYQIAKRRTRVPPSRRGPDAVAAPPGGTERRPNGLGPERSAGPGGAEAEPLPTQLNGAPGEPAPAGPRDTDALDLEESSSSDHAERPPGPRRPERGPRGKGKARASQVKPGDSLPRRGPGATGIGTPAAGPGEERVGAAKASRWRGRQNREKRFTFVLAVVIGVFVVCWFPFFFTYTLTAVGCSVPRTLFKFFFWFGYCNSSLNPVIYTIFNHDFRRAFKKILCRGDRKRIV

[3] = target: T3, Alpha-2B adrenergic receptor (Homo sapiens, UniProt P18089)
T3 sequence (P18089 whole entry): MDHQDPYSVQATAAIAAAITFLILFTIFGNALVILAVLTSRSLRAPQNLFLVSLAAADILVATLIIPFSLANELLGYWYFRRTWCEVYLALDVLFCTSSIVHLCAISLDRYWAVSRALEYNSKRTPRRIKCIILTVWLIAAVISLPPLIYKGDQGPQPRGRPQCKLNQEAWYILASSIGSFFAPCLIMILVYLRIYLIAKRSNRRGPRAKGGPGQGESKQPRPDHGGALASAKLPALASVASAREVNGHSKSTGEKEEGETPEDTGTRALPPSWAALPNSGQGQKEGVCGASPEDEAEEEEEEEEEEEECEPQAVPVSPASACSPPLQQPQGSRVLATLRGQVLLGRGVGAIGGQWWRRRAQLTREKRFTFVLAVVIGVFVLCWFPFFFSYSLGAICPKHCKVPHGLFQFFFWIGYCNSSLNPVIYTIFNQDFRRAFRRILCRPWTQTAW

Cannabinoid receptor 1 [4] = target: T4, Cannabinoid receptor 1 (Homo sapiens, UniProt P21554); format: functional, cell-based
T4 sequence (P21554 whole entry): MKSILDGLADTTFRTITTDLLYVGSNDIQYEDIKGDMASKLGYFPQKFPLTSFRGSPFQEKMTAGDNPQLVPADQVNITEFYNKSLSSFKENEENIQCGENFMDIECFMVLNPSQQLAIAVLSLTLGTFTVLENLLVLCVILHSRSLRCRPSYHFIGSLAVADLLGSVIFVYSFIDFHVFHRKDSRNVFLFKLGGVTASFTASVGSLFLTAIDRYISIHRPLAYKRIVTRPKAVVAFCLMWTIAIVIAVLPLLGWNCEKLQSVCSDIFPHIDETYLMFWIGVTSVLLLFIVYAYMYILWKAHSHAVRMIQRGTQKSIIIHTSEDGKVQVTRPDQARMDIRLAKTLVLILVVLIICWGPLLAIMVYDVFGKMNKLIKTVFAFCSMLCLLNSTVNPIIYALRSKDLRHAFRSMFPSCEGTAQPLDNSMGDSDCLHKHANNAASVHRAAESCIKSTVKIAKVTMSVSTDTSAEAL

[5] = target: Kappa-type opioid receptor (Homo sapiens, UniProt P41145)
Chain of Kappa-type opioid receptor (P41145 whole entry): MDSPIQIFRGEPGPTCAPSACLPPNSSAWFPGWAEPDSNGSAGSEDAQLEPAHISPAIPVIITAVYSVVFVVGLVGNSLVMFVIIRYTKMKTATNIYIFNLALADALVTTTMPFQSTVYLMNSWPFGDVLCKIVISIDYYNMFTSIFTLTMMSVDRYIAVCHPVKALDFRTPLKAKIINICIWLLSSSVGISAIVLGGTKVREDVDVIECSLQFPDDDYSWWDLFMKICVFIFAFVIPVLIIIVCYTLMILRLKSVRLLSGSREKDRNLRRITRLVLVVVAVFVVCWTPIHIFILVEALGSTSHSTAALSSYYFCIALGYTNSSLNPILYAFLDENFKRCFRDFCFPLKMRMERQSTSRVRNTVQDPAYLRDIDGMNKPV

Cannabinoid receptor 1 [6] = target: T4, Cannabinoid receptor 1; format: functional, cell-based; remark: listed apart in the source
[7] = target: Voltage-dependent L-type calcium channel subunit alpha-1C (Rattus norvegicus, UniProt P22002); format: functional
Chain of Voltage-dependent L-type calcium channel subunit alpha-1C (P22002 whole entry): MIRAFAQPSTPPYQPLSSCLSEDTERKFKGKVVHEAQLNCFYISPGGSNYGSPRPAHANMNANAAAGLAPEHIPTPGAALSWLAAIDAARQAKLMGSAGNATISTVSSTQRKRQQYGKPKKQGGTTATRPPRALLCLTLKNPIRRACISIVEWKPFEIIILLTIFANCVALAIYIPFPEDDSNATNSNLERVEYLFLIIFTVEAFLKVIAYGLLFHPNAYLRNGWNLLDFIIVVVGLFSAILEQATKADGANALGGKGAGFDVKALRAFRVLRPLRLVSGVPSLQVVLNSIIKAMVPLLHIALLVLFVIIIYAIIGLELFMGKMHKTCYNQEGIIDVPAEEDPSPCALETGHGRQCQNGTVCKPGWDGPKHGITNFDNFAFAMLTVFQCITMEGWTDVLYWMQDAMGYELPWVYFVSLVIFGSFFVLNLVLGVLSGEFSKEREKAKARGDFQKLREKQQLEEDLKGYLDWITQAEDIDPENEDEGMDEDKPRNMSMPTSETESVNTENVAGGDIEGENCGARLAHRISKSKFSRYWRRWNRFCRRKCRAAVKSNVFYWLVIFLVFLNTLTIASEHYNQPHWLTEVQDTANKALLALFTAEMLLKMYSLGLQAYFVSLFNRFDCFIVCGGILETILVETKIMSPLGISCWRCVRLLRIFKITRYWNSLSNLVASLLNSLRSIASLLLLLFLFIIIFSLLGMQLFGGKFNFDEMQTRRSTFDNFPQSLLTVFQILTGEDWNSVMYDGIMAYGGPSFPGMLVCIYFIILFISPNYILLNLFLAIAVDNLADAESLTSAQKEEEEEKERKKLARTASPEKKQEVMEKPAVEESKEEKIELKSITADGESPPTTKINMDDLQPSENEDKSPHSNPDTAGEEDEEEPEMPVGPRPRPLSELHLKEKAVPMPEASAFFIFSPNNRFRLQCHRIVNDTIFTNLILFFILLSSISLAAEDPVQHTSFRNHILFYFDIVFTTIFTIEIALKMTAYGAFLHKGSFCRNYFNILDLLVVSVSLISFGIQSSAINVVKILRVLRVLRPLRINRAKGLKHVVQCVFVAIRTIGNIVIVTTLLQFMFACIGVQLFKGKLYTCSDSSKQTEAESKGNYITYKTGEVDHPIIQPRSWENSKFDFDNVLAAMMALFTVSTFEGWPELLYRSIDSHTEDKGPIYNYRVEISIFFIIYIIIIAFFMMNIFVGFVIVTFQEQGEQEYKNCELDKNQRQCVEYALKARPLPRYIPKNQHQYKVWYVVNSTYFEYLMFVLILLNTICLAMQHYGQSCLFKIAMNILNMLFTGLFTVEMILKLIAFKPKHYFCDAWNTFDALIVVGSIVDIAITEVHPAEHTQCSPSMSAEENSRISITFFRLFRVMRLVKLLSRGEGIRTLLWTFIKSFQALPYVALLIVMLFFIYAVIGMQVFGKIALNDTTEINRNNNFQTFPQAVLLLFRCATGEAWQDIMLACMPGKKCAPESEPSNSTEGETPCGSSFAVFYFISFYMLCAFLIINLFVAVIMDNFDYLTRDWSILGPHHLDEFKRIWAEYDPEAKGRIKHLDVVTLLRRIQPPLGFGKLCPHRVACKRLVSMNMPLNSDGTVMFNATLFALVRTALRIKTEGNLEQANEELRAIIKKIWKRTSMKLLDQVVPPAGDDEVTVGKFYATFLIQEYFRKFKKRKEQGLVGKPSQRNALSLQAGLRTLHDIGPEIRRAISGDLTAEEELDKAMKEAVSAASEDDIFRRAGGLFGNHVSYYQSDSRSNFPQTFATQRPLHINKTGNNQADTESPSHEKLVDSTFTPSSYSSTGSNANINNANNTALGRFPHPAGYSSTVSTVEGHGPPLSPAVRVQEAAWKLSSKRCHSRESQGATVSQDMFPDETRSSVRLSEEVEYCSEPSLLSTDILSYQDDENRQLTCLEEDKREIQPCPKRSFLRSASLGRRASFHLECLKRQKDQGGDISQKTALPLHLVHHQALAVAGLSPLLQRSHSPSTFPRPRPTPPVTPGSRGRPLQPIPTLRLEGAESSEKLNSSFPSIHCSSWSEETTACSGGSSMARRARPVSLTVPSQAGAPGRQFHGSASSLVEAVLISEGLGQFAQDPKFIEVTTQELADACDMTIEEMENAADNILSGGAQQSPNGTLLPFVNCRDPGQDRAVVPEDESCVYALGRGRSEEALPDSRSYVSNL

Histamine H3 receptor = Histamine H3 receptor (Homo sapiens, UniProt Q9Y5N1)
Chain of Histamine H3 receptor (Q9Y5N1 whole entry): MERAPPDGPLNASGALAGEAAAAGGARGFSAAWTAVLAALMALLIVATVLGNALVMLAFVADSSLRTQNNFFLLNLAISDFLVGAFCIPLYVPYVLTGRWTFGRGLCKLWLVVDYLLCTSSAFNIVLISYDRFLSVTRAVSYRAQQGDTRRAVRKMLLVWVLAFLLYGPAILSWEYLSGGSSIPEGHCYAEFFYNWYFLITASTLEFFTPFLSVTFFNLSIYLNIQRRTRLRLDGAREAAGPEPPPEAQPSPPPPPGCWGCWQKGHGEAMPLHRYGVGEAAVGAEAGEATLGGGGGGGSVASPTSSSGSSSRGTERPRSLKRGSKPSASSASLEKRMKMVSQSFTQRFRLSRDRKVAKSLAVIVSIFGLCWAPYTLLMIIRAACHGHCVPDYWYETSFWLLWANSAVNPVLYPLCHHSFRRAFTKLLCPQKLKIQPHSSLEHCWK

Progesterone receptor [8] = target: T1, Progesterone receptor
Melanocortin receptor 4 = Melanocortin receptor 4 (Homo sapiens, UniProt P32245)
Chain of Melanocortin receptor 4 (P32245 whole entry): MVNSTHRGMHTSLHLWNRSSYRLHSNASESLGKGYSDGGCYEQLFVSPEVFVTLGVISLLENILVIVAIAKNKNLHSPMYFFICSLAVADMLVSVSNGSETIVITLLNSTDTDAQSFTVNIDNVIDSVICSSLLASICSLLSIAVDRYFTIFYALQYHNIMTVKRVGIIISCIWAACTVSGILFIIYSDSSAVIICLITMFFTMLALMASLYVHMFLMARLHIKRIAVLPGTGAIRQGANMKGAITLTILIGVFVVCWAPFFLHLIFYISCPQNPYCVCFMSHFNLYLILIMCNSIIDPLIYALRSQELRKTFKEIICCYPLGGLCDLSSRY
Note: assay procedure not described here.

Chain of D(1A) dopamine receptor (P21728 whole entry): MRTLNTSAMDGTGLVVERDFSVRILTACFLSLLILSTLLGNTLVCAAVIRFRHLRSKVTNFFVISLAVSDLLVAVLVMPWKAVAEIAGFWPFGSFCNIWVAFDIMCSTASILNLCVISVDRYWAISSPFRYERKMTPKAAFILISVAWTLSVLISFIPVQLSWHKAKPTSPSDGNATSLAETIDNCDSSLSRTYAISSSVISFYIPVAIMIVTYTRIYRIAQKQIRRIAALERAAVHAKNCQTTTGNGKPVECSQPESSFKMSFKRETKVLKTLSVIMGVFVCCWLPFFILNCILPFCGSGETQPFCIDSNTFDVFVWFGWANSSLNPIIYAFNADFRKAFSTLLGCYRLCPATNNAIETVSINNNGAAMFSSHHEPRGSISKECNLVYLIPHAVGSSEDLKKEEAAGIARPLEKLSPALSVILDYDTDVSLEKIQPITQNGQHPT

| Compound | AC50 (D(1A) dopamine receptor) [µM] | AC50 (Progesterone receptor [1]) [µM] | AC50 [2] [µM] | AC50 [3] [µM] | AC50 (Cannabinoid receptor 1 [4]) [µM] | AC50 [5] [µM] | AC50 (Cannabinoid receptor 1 [6]) [µM] | AC50 [7] [µM] | AC50 (Histamine H3 receptor) [µM] | AC50 (Progesterone receptor [8]) [µM] | AC50 (Melanocortin receptor 4) [µM] |
| --- | --- | --- | --- | --- | --- | --- | --- | --- | --- | --- | --- |
| CC(=O)N[C@@H](CS)C(=O)O [ACETYLCYSTEINE] | > 30 | > 30 | > 30 | > 10 | > 30 | > 30 | > 30 | – | – | – | – |
| C=CCNc1nc(NCC=C)nc(N2CCN(C(c3ccc(F)cc3)c3ccc(F)cc3)CC2)n1 [ALMITRINE] | > 30 | > 30 | > 30 | > 30 | – | 18 | – | > 30 | – | – | – |
| C=CCSCC1Nc2cc(Cl)c(S(N)(=O)=O)cc2S(=O)(=O)N1 (configuration not stated) [ALTHIAZIDE] | – | – | – | – | – | – | – | – | > 30 | > 30 | – |
| CC(C)COCC(CN(Cc1ccccc1)c1ccccc1)N1CCCC1 (configuration not stated) [BEPRIDIL] | > 30 | > 30 | > 30 | 6.2 | – | – | – | 24 | – | – | 15.4 |
| C/N=C(\NC)NCc1ccccc1 [BETHANIDINE] | > 30 | > 30 | > 30 | > 30 | > 30 | > 30 | > 30 | – | – | – | – |
| CCC(C)C1(CC)C(=O)NC(=O)NC1=O (configuration not stated) [BUTABARBITAL] | > 30 | > 30 | > 30 | – | > 30 | – | > 30 | – | – | – | – |
| COCC1=C(C(=O)O)N2C(=O)[C@@H](NC(=O)/C(=N\OC)c3csc(N)n3)[C@H]2SC1 [CEFPODOXIME] | > 30 | > 30 | > 30 | > 30 | > 30 | > 30 | > 30 | > 30 | – | – | – |
| COc1cc(N)c(Cl)cc1C(=O)NC1CCN(Cc2ccccc2)CC1 [CLEBOPRIDE] | – | > 30 | 14 | 18 | > 30 | 22 | > 30 | > 30 | – | – | – |
| Cc1ccccc1N1CCN(CCc2nnc3n2CCCC3)CC1 [DAPIPRAZOLE] | – | – | – | – | – | – | – | – | > 30 | > 30 | – |
| C=C1CC[C@H](O)C/C1=C/C=C1\CCC[C@]2(C)[C@@H]([C@H](C)/C=C/[C@H](C)C(C)C)CC[C@@H]12 [ERGOCALCIFEROL] | – | – | – | – | – | – | – | – | > 30 | > 30 | – |
| C[C@]12CCC(=O)C(O)=C1CC[C@@H]1[C@@H]2CC[C@]2(C)C(=O)CC[C@@H]12 [FORMESTANE] | > 30 | – | > 30 | > 30 | > 30 | – | > 30 | > 30 | – | – | – |
| C[C@]12CC[C@@H]3c4ccc(O)cc4C[C@@H](CCCCCCCCC[S+]([O-])CCCC(F)(F)C(F)(F)F)[C@H]3[C@@H]1CC[C@@H]2O (some centres not stated) [FULVESTRANT] | > 30 | 3.6 | > 30 | > 30 | > 30 | > 30 | > 30 | – | – | – | – |
| CCC(=O)O[C@]1(C(=O)CCl)[C@@H](C)C[C@H]2[C@@H]3C[C@H](F)C4=CC(=O)C=C[C@]4(C)[C@@]3(F)[C@@H](O)C[C@@]21C [HALOBETASOL PROPIONATE] | – | – | – | – | – | – | – | – | > 30 | 0.003 | – |
| Cc1cc(NC(=O)C2=C(O)c3ccccc3S(=O)(=O)N2C)no1 [ISOXICAM] | – | – | – | – | – | – | – | – | > 30 | > 30 | – |
| Oc1ccc2c(c1)CC[C@H](c1ccccc1)[C@@H]2c1ccc(OCCN2CCCC2)cc1 [LASOFOXIFENE] | > 30 | > 10 | – | 8.2 | > 30 | 0.0849 | > 30 | – | – | – | – |
| CC(C(=O)O)c1ccc(CC2CCCC2=O)cc1 (configuration not stated) [LOXOPROFEN] | > 30 | – | > 30 | – | > 30 | 0.66 | > 30 | > 30 | – | – | – |
| Cc1c(N(C)CS(=O)(=O)O)c(=O)n(-c2ccccc2)n1C [METAMIZOLE] | – | – | – | – | – | – | – | – | > 30 | > 30 | – |
| CN(C)CCCNc1c2ccccc2nc2cccc([N+](=O)[O-])c12 [NITRACRINE] | – | > 30 | > 30 | 22 | > 30 | > 30 | > 30 | > 30 | – | – | – |
| O=[N+]([O-])c1ccc(O)c2ncccc12 [NITROXOLINE] | > 30 | – | > 30 | 8.8 | > 30 | 9.3 | > 30 | – | > 30 | > 30 | – |
| C#C[C@]1(OC(C)=O)CC[C@H]2[C@@H]3CCC4=C/C(=N/O)CC[C@@H]4[C@H]3CC[C@@]21CC [NORGESTIMATE] | > 30 | – | > 30 | > 30 | > 30 | > 30 | > 30 | > 30 | – | – | – |
| Clc1ccc2c(N3CCN(CCCN4CCN(c5ccnc6cc(Cl)ccc56)CC4)CC3)ccnc2c1 [PIPERAQUINE] | > 30 | > 30 | > 30 | > 30 | > 30 | 17 | > 30 | > 30 | – | – | – |
| CC[C@@H]([C@H](C)O)n1ncn(-c2ccc(N3CCN(c4ccc(OC[C@@H]5CO[C@@](Cn6cncn6)(c6ccc(F)cc6F)C5)cc4)CC3)cc2)c1=O [POSACONAZOLE] | – | > 30 | – | > 30 | – | – | – | – | > 30 | > 30 | – |
| COc1ccc(CN(CCN(C)C)c2ccccn2)cc1 [PYRILAMINE] | – | – | – | – | – | – | – | – | > 30 | > 30 | – |
| CC1(C)S[C@@H]2[C@H](NC(=O)[C@H](N)c3ccccc3)C(=O)N2[C@H]1C(=O)OCOC(=O)[C@@H]1N2C(=O)C[C@H]2S(=O)(=O)C1(C)C [SULTAMICILLIN] | > 30 | > 30 | > 30 | > 30 | > 30 | > 30 | > 30 | > 30 | – | – | – |
| Cc1cccc(N2CC(CO)OC2=O)c1 (configuration not stated) [TOLOXATONE] | > 30 | > 30 | > 30 | > 30 | > 30 | > 30 | > 30 | > 30 | – | – | – |
| CCC(C)C(CC)C(N)=O (configuration not stated) [VALNOCTAMIDE] | > 30 | > 30 | > 30 | > 30 | > 30 | > 30 | > 30 | – | – | – | – |
| CCOC(=O)C1=C[C@]2(CC)CCCN3CCc4c(n1c1ccccc41)[C@@H]32 [VINPOCETINE] | > 30 | > 30 | 19 | 2.4 | > 30 | > 30 | > 30 | – | – | – | – |
| Cc1cc(C(C)(C)C)cc(C)c1CC1=NCCN1 [XYLOMETAZOLINE] | > 30 | > 30 | 0.0616 | 0.208 | > 30 | 20 | > 30 | > 30 | – | – | – |

Reference: ChEMBL document CHEMBL5291721, “A preclinical secondary pharmacology resource illuminates target-adverse drug reaction associations of marketed drugs” (Nat Commun, 2023)
